The target of series [1] is T1, Soluble guanylate cyclase alpha1/beta1 complex (Rattus norvegicus) (UniProt P19686+P20595). As to the kind of experiment: Stimulation of recombinant rat sGC alpha1/beta1 expressed in CHO cells assessed as formation of cGMP from GTP by measuring concentration for >3-fold increase in the basal luminescence value by luminescence based analysis. Format: cell-based. Particulars: filed as activator.

A short description of series [2]: Metabolic stability in rat hepatocytes assessed as clearance measured upto 90 mins by LC-MS/MS analysis. Format: ADME, cell-based, Hepatocyte.
Series [3] in a line: Apparent permeability across apical to basolateral side in human Caco-2 cells incubated for 2 hrs by LC-MS/MS analysis. Format: ADME, cell-based.
Series [4] can be described thus: Fraction unbound in po or iv dosed Wistar rat. It is filed as ADME, organism-based. As to conditions: in vivo.
The nature of series [5]: Blood clearance in Wistar rat at 0.3 mg/kg, iv administered as infusion incubated for 20 mins by HR LC-MS/MS analysis. Format: ADME, organism-based. As to conditions: whole blood.
The nature of series [6]: Efflux ratio of apparent permeability basolateral to apical side over apical to basolateral side in human Caco-2 cells incubated for 2 hrs by LC-MS/MS analysis. Format: ADME, cell-based.
Series [7] can be described thus: Volume of distribution at steady state in Wistar rat at 0.3 mg/kg, iv administered as infusion by LC-MS/MS analysis. As to conditions: in vivo, read-out: Vdss. It is filed as ADME, organism-based.
Series [8] in a line: Half life in Wistar rat at 0.3 mg/kg, iv administered as infusion by LC-MS/MS analysis. Format: ADME, organism-based. Particulars: in vivo.
Series [9] is described as follows: Solubility of compound in PBS at pH 6.5 measured for 24 hrs by LC-MS/MS analysis. It is filed as physicochemical.
Series [10] in a line: Oral bioavailability in Wistar rat at 1 mg/kg by LC-MS/MS analysis. It is filed as ADME, organism-based. Particulars: in vivo.
Series [11] has as its target T1, Soluble guanylate cyclase alpha1/beta1 complex (Rattus norvegicus). As to the kind of experiment: Stimulation of recombinant rat sGC alpha1/beta1 expressed in CHO cells assessed as formation of cGMP from GTP in presence of NO donor SNAP by measuring basal luminescence value by luminescence based analysis. It is filed as cell-based. Particulars: filed as activator, dose 300.0 nM.

The test system of series [12] is Aorta. As to the kind of experiment: Vasorelaxant activity in New Zealand White rabbits aortic rings assessed as reduction in phenylephrine-induced contraction measured after 30 mins. Particulars: Oryctolagus cuniculus, 0.5 h. Format: functional, tissue-based.
The test system of series [13] is CHO. As to the kind of experiment: Stimulation of recombinant rat sGC alpha1/beta1 expressed in CHO cells assessed as formation of cGMP from GTP in presence of […] ODQ by measuring basal luminescence value by luminescence based analysis. Format: cell-based. Particulars: dose 300.0 nM, time 3.0 hrs.
In series [14] the test system is Rattus norvegicus. As to the kind of experiment: Antihypertensive activity in spontaneous hypertensive Wistar rat assessed as decrease in systolic blood pressure at 3 mg/kg, iv administered as bolus injection measured for 21 days by tail-cuff method. Format: functional. As to conditions: time 21 day.
Series [15] deals with Rattus norvegicus. As to the kind of experiment: Antihypertensive activity in spontaneous hypertensive Wistar rat assessed as decrease in systolic blood pressure at 1 mg/kg, iv administered as bolus injection measured for 21 days by tail-cuff method. It is filed as functional. As to conditions: time 21 day.
The subject of series [16] is Rattus norvegicus. The experiment in a line: Antihypertensive activity in spontaneous hypertensive Wistar rat model assessed as reduction in blood pressure at 10 mg/kg, po measured after 12 hrs by radiotelemetry analysis. Format: functional. Also on record: scale not given: the % may be the effect or the level left.
The test system of series [17] is Rattus norvegicus. As to the kind of experiment: Hypotensive effect in conscious normotensive Wistar rat assessed as reduction in arterial blood pressure at 3 mg/kg, po administered for 21 days by tail-cuff method relative to control. Format: functional. Also on record: scale not given: the % may be the effect or the level left. Particulars: time 21 day.
The subject of series [18] is Rattus norvegicus. The experiment in a line: Antihypertensive activity in spontaneous hypertensive Wistar rat assessed as decrease in systolic blood pressure iv administered as bolus injection measured for 21 days by tail-cuff method. Format: functional, organism-based. As to conditions: dose 0.3-3 mg/kg, time 21.0 day.
Series [19] deals with Rattus norvegicus. The experiment in a line: Antihypertensive activity in conscious normotensive Wistar rat model assessed as increase in heart rate at 10 mg/kg, po measured after 14 hrs by radiotelemetry. Format: functional, organism-based.
For series [20], the system named is Rattus norvegicus. The experiment in a line: Antihypertensive activity in spontaneous hypertensive Wistar rat model assessed as reduction in blood pressure po administered bolus injection by radiotelemetry analysis. Format: functional, organism-based. Particulars: dose 0.3 mg/kg.
The subject of series [21] is Rattus norvegicus. As to the kind of experiment: Antihypertensive activity in spontaneous hypertensive Wistar rat model assessed as reduction in blood pressure at 3 mg/kg, po measured after 12 hrs by radiotelemetry analysis. It is filed as functional, organism-based.
Series [22] has as its system Rattus norvegicus. The experiment in a line: Antihypertensive activity in conscious normotensive Wistar rat model assessed as increase in heart rate at 3 mg/kg, po measured after 14 hrs by radiotelemetry. It is filed as functional, organism-based.
Series [23] concerns Rattus norvegicus. As to the kind of experiment: Hypotensive effect in conscious normotensive Wistar rat assessed as reduction in arterial blood pressure at 10 mg/kg, po administered for 21 days by tail-cuff method relative to control. It is filed as functional. Also on record: scale not given: the % may be the effect or the level left. Particulars: time 21 day.
Series [24] deals with Rattus norvegicus. As to the kind of experiment: Hypotensive effect in conscious normotensive Wistar rat assessed as reduction in arterial blood pressure administered orally for 21 days by tail-cuff method. Format: functional, organism-based. Particulars: dose 0.3-1 mg/kg, route po, time 21.0 day.
Series [25] has as its system Rattus norvegicus. The experiment in a line: Antihypertensive activity in spontaneous hypertensive Wistar rat assessed as decrease in systolic blood pressure at 0.3 mg/kg, iv administered as bolus injection measured for 21 days by tail-cuff method. It is filed as functional. Particulars: time 21 day.

These results are taken from ChEMBL document CHEMBL5338746, “New Generation of sGC Stimulators: Discovery of Imidazo[1,2-a]pyridine Carboxamide BAY 1165747 (BAY-747), a Long-Acting Soluble Guanylate Cyclase Stimulator for the Treatment of Resistant Hypertension” (J Med Chem, 2023).

In brackets after ≈: the same amount, converted by molar mass. Activity calls are given as the source filed them. No cut-off for these calls is given here.

`CCCC[C@H](CO)NC(=O)c1c(C)nc2c(OCc3c(C)cccc3C)cccn12`: the MEC in series [1] stood at 3 µM. The CLhep predicted in [2] was 43.3 mL/min/kg.
In the case of `Cc1nc2c(OCC3CCC3)cccn2c1C(=O)NCCC1(O)CCCCC1`, the MEC in series [1] was determined as 3 µM.
For `CCCC[C@H](CO)NC(=O)c1c(C)nc2c(OCCC(C)C)cccn12`, the MEC in series [1] turned out to be 1 µM. Also, the CLhep predicted in [2] was 48.3 mL/min/kg.
The corresponding values for `CCCC[C@H](CO)NC(=O)c1c(C)nc2c(OCc3c(F)cccc3F)cc(F)cn12` are 0.03 µM and 51.7 mL/min/kg.
The matching figures for `CCCC[C@H](CO)NC(=O)c1c(C)nc2c(OCc3c(F)cccc3F)cc(Cl)cn12`: 0.01 µM and 48.3 mL/min/kg.
The corresponding values for `Cc1nc2c(OCC3CCC3)cccn2c1C(=O)NCCOCCO` are 3 µM and 25 mL/min/kg.
As to `CCCC[C@H](CO)NC(=O)c1c(C)nc2c(OCc3c(F)cccc3F)cccn12`, the Papp A→B at 2 h in series [3] worked out at 41.3 ×10⁻⁶ cm/s. In series [4], this compound returned a fraction unbound of 0.049. In series [5], this compound had a clearance at […] of 26.7 mL/min/kg. In series [6], the efflux ratio at 2 h is 0.6. For the same compound, the MEC in [1] came out at 0.05 µM. For the same compound, in series [7], the Vd was 0.9 L/kg. Besides, the half-life in series [8] was 48 min. In addition, the CLhep predicted in series [2] is 33.3 mL/min/kg. Further, the concentration in solution in series [9] (solubility at 24 h) came to 3 µg/mL (≈ 7.19 µM). The bioavailability in series [10] is 65%.
As for `CCCC[C@H](CO)NC(=O)c1c(C)nc2c(OCc3cccc(F)c3F)cccn12`, the MEC in series [1] stood at 0.3 µM. Further, the CLhep predicted in [2] is 25 mL/min/kg.
As for `CCCC[C@H](CO)NC(=O)c1c(C)nc2c(OCc3ccccc3)cccn12`, the MEC in series [1] amounted to 1 µM. The CLhep predicted in series [2] was 38.3 mL/min/kg.
The matching figures for `CCCC[C@H](CO)NC(=O)c1c(C2CC2)nc2c(OCc3c(F)cccc3F)cccn12`: 0.3 µM and 36.7 mL/min/kg.
The matching figures for `CCCC[C@H](CO)NC(=O)c1c(C)nc2c(OCc3c(F)cc(F)cc3F)cccn12`: 0.1 µM and 26.7 mL/min/kg.
The corresponding values for `CCCC[C@H](CO)NC(=O)c1c(C)nc2c(OCc3c(F)cccc3F)cc(C3CC3)cn12` are 1 µM and 51.7 mL/min/kg.
For `CCCC[C@H](CO)NC(=O)c1cnc2c(OCc3c(F)cccc3F)cccn12`, the MEC in series [1] stood at 0.3 µM. Besides, the CLhep predicted in [2] was 13.3 mL/min/kg.
The matching figures for `CCCC[C@H](CO)NC(=O)c1c(C)nc2c(OCc3c(F)cccc3F)cc(C)cn12`: 0.01 µM and 56.7 mL/min/kg.
For the compound `Cc1nc2c(OCC3CCC3)cccn2c1C(=O)NCc1ccc(Cl)cc1`, the Drug metabolism result in series [11] is “Active”. Also, the MEC in series [1] was found to be 1 µM. Moreover, the half-inhibitory concentration (IC50) in [12] turned out to be 840 nM. The CLhep predicted in series [2] is 60 mL/min/kg. Besides, in series [13], the Drug metabolism entry was “inactive”.
Consider `Cc1nc2c(OCc3c(F)cccc3F)cccn2c1C(=O)NC(CN)c1ccc(F)c(F)c1` (single isomer, unassigned; enantiomer B), for which the Activity was -96 mmHg in [14]; -38 mmHg in series [15]; 20% in [16]; 8% in series [17]; “Dose-Dependent Effect” in [18]; “Dose-Dependent Effect” in [20]. In addition, the Activity in [23] was 10%; in [24], “Dose-Dependent Effect”; in series [25], -12 mmHg. Further, the outcome in [19], in series [21] and in series [22] was Active. The IC50 in series [12] was 625 nM.
